What was measured:
[1] = tested on: annexin 1; experiment: Induction of annexin 1 in BxPC-3 cells, Western blot of nuclear and cytoplasmic extracts; type: cell-based, human
Experimental: (§1) The human pancreatic cancer cell line, BxPC-3, or the colon cancer cell line HT-29, both from ATCC (Manassas, Va.) were maintained and grown in RPMI 1640 or McCoy's 5A medium (Cellgro) supplemented with 10% fetal bovine serum (HyClone) and 1% penicillin/streptomycin (Cellgro) in a humidified incubator at 37° C. and 5% CO2.
The cell fractions were obtained as described by Andrews and Faller (N. C. Andrews and D. V. Faller, Nucleic Acids Res. 19:2499 (1991)) with modification. Briefly, the cells were pelleted after treatment and washed three times with PBS. The cell pellets were resuspended in ice cold buffer A (10 mM HEPES, pH 7.9, 10 mM KCl, 1.5 mM MgCI2, 0.5 mM DTT, 0.5 mM PMSF) with protease inhibitor cocktail (Sigma) and incubated on ice for 15 min with occasional mixing by gently tapping the tube. The cell lysates were centrifuged up to 5000 rpm for three times. The supernatants were collected as cytoplasmic extracts. Nuclear pellets were washed with buffer A and resuspended in buffer C (20 mM HEPES, pH 7.9, 450 mM NaCl, 1.5 mM MgCI2, 0.2 mM EDTA, 0.5 mM DTT, 0.5 mM PMSF, 25% Glycerol) with protease inhibitor cocktail (Sigma) and incubated on ice for 30 min with occasional mixing to extract nuclear proteins. Nuclear extracts were cleared by centrifugation (14,800 rpm for 10 min) and the supernatants were collected as nuclear extracts.
(§2) For Western blotting, the proteins from both cytoplasmic extracts and nuclear extracts were separated by SDS-polyacrylamide gel electrophoresis and transferred onto PVDF membranes (Millipore). The membranes were blocked in 5% nonfat dry milk-TBS-T (20 mM Tris-HCl, pH 7.5, 500 mM NaCl. 0.3% Tween 20) at room temperature (RT) for an hour and probed with anti-annexin 1, c-IAP-1, c-IAP-2, and TRAF-1 (Santa Cruz Biotechnology, Inc. CA), and anti-Bcl-2 antibodies (Cell Signaling Technology), in 5% nonfat dry milk-TBS-T at 4° C. overnight. The blots were washed three times with TBS-T for 5 min each wash and incubated with horseradish peroxidase-conjugated secondary antibody (Santa Cruz) in 5% nonfat dry milk-TBS-T at RT for an hour. After five washes with TBS-T, the blots were developed with the enhanced chemiluminescence system (ECL™ Western Blotting System, Amersham Biosciences) and exposed to x-ray film according to the manufacturer's instructions. Protein loading was normalized using anti-β-actin antibodies (Santa Cruz Biotechnology, Inc).

[2] = tested on: annexin 1; experiment: Induction of annexin 1 in HT-29 cells, Western blot; type: cell-based, human
Experimental: as §1
For the study of induction of annexin 1 by anti-inflammatory agents, the cells were incubated with either NO-ASA or Dex for 3 h. The cell fractions were obtained as described by Andrews and Faller (N. C. Andrews and D. V. Faller, Nucleic Acids Res. 19:2499 (1991)) with modification. Briefly, the cells were pelleted after treatment and washed three times with PBS. The cell pellets were resuspended in ice cold buffer A (10 mM HEPES, pH 7.9, 10 mM KCl, 1.5 mM MgCI2, 0.5 mM DTT, 0.5 mM PMSF) with protease inhibitor cocktail (Sigma) and incubated on ice for 15 min with occasional mixing by gently tapping the tube. The cell lysates were centrifuged up to 5000 rpm for three times. The supernatants were collected as cytoplasmic extracts. Nuclear pellets were washed with buffer A and resuspended in buffer C (20 mM HEPES, pH 7.9, 450 mM NaCl, 1.5 mM MgCI2, 0.2 mM EDTA, 0.5 mM DTT, 0.5 mM PMSF, 25% Glycerol) with protease inhibitor cocktail (Sigma) and incubated on ice for 30 min with occasional mixing to extract nuclear proteins. […]

[3] = tested on: BxPC-3 human pancreatic cancer cells; experiment: MTT cell growth assay, BxPC-3; type: cell-based; conditions: 24 hours
Experimental: The growth of the cells at 24 hours was determined using the MTT assay, which was carried out according to the manufacturer's protocol (Sigma). BxPC-3 cells were seeded in a 96-well plate and cultured in RPMI 1640 medium supplemented with 10% fetal bovine serum and 1% penicillin/streptomycin, as described above. […] MTT solution (M-0283) in an amount equal to 10% of the culture medium volume was then added to each well and the cells were incubated for 4 hours. The resulting MTT formazan crystals were dissolved by adding MTT Solvent (M-0408) directly to the culture in an amount equal to the original culture volume with gentle stirring and then quantitated by an ELISA Model 680 Microplate Reader (Biorad).

[4] = tested on: HT-29 cells; experiment: MTT cell growth assay, HT-29; type: cell-based, human; conditions: at 24 h; read-out: Inhibition of HT-29 cell growth IC50
[5] = tested on: survivin, Bcl-2, c-IAP-1, c-IAP-2, and TRAF-1; experiment: Western blot of NF-κB-dependent anti-apoptotic gene products in BxPC-3 cells; type: cell-based, human; conditions: at 8 h
Experimental: as §2

[6] = tested on: annexin 1; experiment: Annexin 1 levels in small intestine epithelial cells of treated Min and wild-type mice; type: in vivo; conditions: NO-ASA 100 mg/kg or Dex 10 mg/kg daily for 7 days
Experimental: (§3) To assess whether these changes occur in vivo, the inventors studied isolated small intestine epithelial cells from Min mice and the corresponding wild type mice C57BL/6J (of which the Min mice are a congenic derivative) treated with NO-ASA 100 mg/kg or Dex 10 mg/kg daily for 7 days. Min (multiple intestinal neoplasia), a mutant allele of the murine APC (adenomatous polyposis coli) locus, encodes a nonsense mutation at codon 850. Heterozygous Min mutants spontaneously develop tumors in the intestine and represent a model of intestinal carcinogenesis (M. Lipkin et al., Ann. N.Y. Acad. Sci. 889:14-19 (1999); A. Moser, H. Pitot, W. Dove, Science 247:322-324 (1990)). The levels of annexin 1 were increased in both Min and wild-type mice treated with either NO-ASA or Dex (FIG. 7A and FIG. 8A). The induction of annexin 1 by NO-ASA or Dex was accompanied by the inhibition of NF-κB activity (FIGS. 7B and 8B).
(§4) A mouse model of multiple intestinal neoplasia, the Min mice, and the congenic parent wild-type mice were used to test the in vivo action of NO-ASA in the induction of annexin 1. Both wild-type and Min mice were treated for 7 days with vehicle or NO-ASA 100 mg/kg. After 7 days of treatment, the mice were sacrificed and the epithelial cells were evaluated as in Example 6 by confocal microscopy.

[7] = tested on: NF-κB; experiment: NF-κB activity in treated Min and wild-type mice; type: in vivo; conditions: NO-ASA 100 mg/kg or Dex 10 mg/kg daily for 7 days
Experimental: as §3, §4

[8] = tested on: NF-κB p65; experiment: Co-localization of annexin 1 and p65 in intestinal epithelial cells of treated mice; type: in vivo; conditions: NO-ASA 100 mg/kg, 7 days
Experimental: as §4

[9] = tested on: pancreatic cancer; conditions: animal tumor model; cited from earlier work

## nitric oxide-donating aspirin [NO-ASA]
[1]; cytoplasm
  time of maximal annexin 1 levels in the cytoplasm: 3 h
[1]; nuclear and cytoplasmic extracts
  expression of annexin 1: induced
[1]; nucleus
  time of peak annexin 1 levels in the nucleus: 3 h
[2]
  expression of annexin 1: induced
[3]
  growth of BxPC-3 cells: inhibits the growth
[4]
  IC50: 18.8 µM
[5]
  expression of NF-κB-dependent anti-apoptotic genes survivin, Bcl-2, c-IAP-1, c-IAP-2, TRAF-1: suppressed the expression
[6]; Min mice
  levels of annexin 1: increased
[6]; wild-type mice
  levels of annexin 1: increased
[7]; Min mice
  NF-κB activity: inhibited NF-κB activity
[7]; wild-type mice
  NF-κB activity: inhibited NF-κB activity
[8]; Min mice
  colocalization of annexin 1 and p65 in intestinal cells: greatly enhanced
[8]; wild type mice
  colocalization of annexin 1 and p65 in intestinal cells: modest but significant colocalization
[9]
  prevention of pancreatic cancer: almost completely prevents pancreatic cancer

From patent US8691764B2, “Inhibitors of NF-κB activity” (The Research Foundation for the State University of New York, priority 2007, dated 2014)
